Assay: Human HepG2 cell viability assay in 384 well format
Assay type: toxicity, cell-based
Set-up: dose 125 nL, time 70.5 hour; concentration not given beside the values
Conditions: HepG2 cells, read-out: Inhibition

Structure (SMILES) | cytotoxicity at 70.5 h
COc1nonc1NCn1nc(C)cc1C | 51.2%
Cc1c(CN2CCCCC2)c(O)n(CCCO)c(=O)c1C#N | -4.27%
COCCN(CCOC)Cc1c(C)nc2ccccc2c1O | 5.31%
COCC(=O)N1CCN(S(=O)(=O)c2ccccc2)[C@@H](C(=O)OC)C1 | -5.08%
NC(=O)CN1C(=O)CO[C@H]2CN(Cc3ccccc3)C[C@H]21 | -0.937%
CN1CCC(N2CCOC[C@H]2c2nc(C(C)(C)C)c[nH]2)CC1 | 0.765%
O[C@@H]1C[C@@H](c2nc(-c3ccccc3)no2)N(Cc2ccncc2)C1 | -1.52%
CC1=C[C@@H](CN2CCN(C)CC2)[C@H](C(C)C)C[C@H]1Cc1nnc(C)o1 | -9.92%
CN(C)Cc1cc(CC2(NCc3ccc(C#N)cc3)COC2)no1 | -6.01%
CCNC(=O)N1C[C@@H]2OCC(=O)N(C)[C@@H]2C1 | 7.93%
CC(C)(C)c1c[nH]c([C@@H]2COCCN2C2CCNCC2)n1 | -0.308%
OCCc1cc(CC2(NCc3ccc(C(F)(F)F)cc3)COC2)no1 | -6.19%
CCN(CC)CC[C@H]1CN(C(=O)c2ccc(F)cc2)CC[C@H]1CC(=O)O | -2.08%
CC(C)NC(=O)[C@@H]1Cc2[nH]cnc2CN1CCCc1ccccc1 | 6.69%
CC1(C)[C@H](Cc2cc(CN3CCCCC3)on2)C[C@@H]1NS(C)(=O)=O | -4.26%
O=C(Cc1ccccc1)NC[C@H]1Cn2ccnc2CO1 | 5.13%
COc1ccc2c(c1)nc1n2[C@@H](CN(C2CCC2)C2CCC2)COC1 | 1.4%
O[C@@H]1C[C@@H](c2nc(-c3cccnc3)no2)N(C2CCOCC2)C1 | 16.4%
CCNC(=O)N1C[C@@H]2OCC(=O)N(CC3CC3)[C@@H]2C1 | -3.79%
CS(=O)(=O)Nc1ccc([C@H]2OCC(=O)N[C@@H]2CO)cc1 | 2.21%
O=C(NC[C@H]1OC[C@@H](NC2CCC(F)(F)CC2)[C@@H]1O)C1CC1 | -7.04%
COc1ccc(CN[C@@H]2CO[C@H](CNC(=O)NC(C)C)[C@H]2O)cc1 | -5.02%

Structure (SMILES) | cytotoxicity at 70.5 h
CC(C)NC(=O)NC[C@H]1OC[C@@H](NCc2ccccc2O)[C@@H]1O | -2.12%
CC(C)NC(=O)NC[C@H]1OC[C@@H](NCc2cccs2)[C@@H]1O | 9.03%
COc1ccc(S(=O)(=O)N2CCOC[C@H](Oc3cnccn3)C2)cc1 | -0.146%
Cc1cc(C(=O)N2CCOC[C@H](Oc3cnccn3)C2)c(C(F)(F)F)o1 | 2.77%
CC(=O)N1CCC(NC2(Cc3cc(C(C)(C)O)on3)COC2)CC1 | -7.16%
O=C(c1ccccn1)N1C[C@@H]2OCC(=O)N(CC3CCCCC3)[C@@H]2C1 | -6.75%
CC(C)(C)c1coc([C@@H]2COCCN2Cc2cnc3ccccc3c2)n1 | 0.0852%
COCCN1CCN(C(=O)C[C@@H]2C[C@@H](C(C)C)[C@H](CC#N)C=C2C)CC1 | 1.71%
COC(=O)c1cccc2nc([C@H]3CCN(Cc4ccccc4C)C3)oc12 | -14.2%
FC(F)(F)c1ccc2nc([C@H]3CCN(C4CCCCC4)C3)[nH]c2c1 | 5.15%
CCN(CC)C1(Cc2cc(COC)on2)COC1 | -0.489%
CS(=O)(=O)N1C[C@@H]2OCC(=O)N(CC3CC3)[C@@H]2C1 | -7.03%
O=C(c1cnccn1)N1C[C@@H]2OCC(=O)N(CC3CCCCC3)[C@@H]2C1 | -0.096%
O=C1N(Cc2cccnc2)C[C@H]2CN(C3CCOCC3)CCN12 | -0.196%
O=C(NC[C@H]1OC[C@@H](NC2CCC(F)(F)CC2)[C@@H]1O)c1cccs1 | -5.94%
c1cncc(O[C@H]2COCCN(Cc3c[nH]c4ccccc34)C2)c1 | 4.1%
O=C1N[C@@H]2CCN(C(=O)C3CCCC3)[C@@H]2C(=O)N1c1ccc(F)cc1 | -2.52%
Cn1cncc1-c1nnc([C@H]2CCN(Cc3ccc(F)c(F)c3)C2)o1 | -0.644%
Cn1cc(CN2C[C@@H](F)[C@@H](OCc3nc4cnccc4[nH]3)C2)cn1 | -1.11%
NC(=O)c1cccc2nc([C@H]3CCN(Cc4ccccn4)C3)[nH]c12 | -0.598%
FC(F)(F)c1ccc2nc([C@H]3CCN(C4CCC4)C3)[nH]c2c1 | -7.81%
O=C(NC[C@H]1OC[C@@H](NCc2ccc(F)cc2)[C@@H]1O)N1CCOCC1 | -8.58%

Structure (SMILES) | cytotoxicity at 70.5 h
CC(=O)N1CCC(NC[C@H]2Cn3c(-c4ccccc4)cnc3CO2)CC1 | -5.76%
COC(=O)[C@@H]1Cc2ncn(C)c2CN1S(=O)(=O)Cc1ccccc1 | -2.85%
O=C1CO[C@H](c2ccc(NS(=O)(=O)c3ccccc3)cc2)[C@@H](CO)N1 | 11.6%
CCCNC(=O)C[C@@H]1CCN(C(=O)c2cccnc2)C[C@@H]1CC | 12.5%
COCC(=O)N1CCN(C(=O)C2CCCCC2)[C@@H](C(=O)OC)C1 | 1.64%
COCCNC(=O)[C@H]1CN2CCC1C[C@@H]2Cn1cc(C(C)(C)C)nn1 (stereo partly drawn) | -0.883%
CNCc1cn(C[C@H]2C[C@@H]3CCN2C[C@@H]3C(=O)NC2CCCCC2)nn1 | -5.79%
COCc1cn(C[C@H]2C[C@@H]3CCN2C[C@@H]3C(=O)N2CCOCC2)nn1 | -3.96%
CNCc1cn(C[C@H]2CC3CCN2C[C@@H]3C(=O)Nc2ccccc2)nn1 (stereo partly drawn) | -9.94%
CC[C@H]1CN2CC[C@H]1C[C@@H]2CNC(=O)Nc1ccc(Br)cc1 | -0.477%
CC[C@H]1CN2CC[C@H]1C[C@@H]2CNC(=O)Nc1cc(OC)cc(OC)c1 | 0.42%
CC[C@H]1CN2CC[C@H]1C[C@@H]2CNC(=O)Nc1ccccc1 | -2.2%
CC(C)(C)CC(=O)N1CC[C@H]2NC(=O)N(Cc3ccccc3)C(=O)[C@H]21 | -4.69%
O=C(NC[C@H]1C[C@@H]2CCN1C[C@@H]2CN1CCOCC1)Nc1ccsc1 | -12.4%
CC(=O)NC[C@H]1C[C@@H]2CCN1C[C@@H]2c1cc(-c2cccs2)nn1C | -10.2%
CCC(NC(=O)c1nn(C)cc1C(=O)O)c1ccc(C)cc1C (stereo not drawn) | -6.11%
CCCSc1ncc(Cl)c(C(=O)NC(CCSC)C(=O)O)n1 (stereo not drawn) | -7.81%
Cc1cc(NCC2CCCO2)cc(=O)n1C (stereo not drawn) | -9.63%
N#CCCn1nc(C(F)(F)F)c2c1CCC2 | -2.44%
NCCCn1nc(C(F)(F)F)c2c1CCC2 | -7.21%
Cn1cc(N)c(-c2nnc3n2CCCC3)n1 | -0.222%
CC(C)c1cc(COCCCC(=O)O)no1 | -2.63%

Structure (SMILES) | cytotoxicity at 70.5 h
CCCn1cc2c(C(F)F)cc(SCC(=O)O)nc2n1 | -8.88%
Cn1nccc1CNC(=O)Cn1nc(C(F)(F)F)cc1C1CC1 | -10.5%
CC1=C(C#N)C(=O)NC(=O)/C1=C\c1c(C)nn(-c2ccccc2)c1O | -2.78%
Cc1c(Br)cc2c(c1C)OCC(N(C)C)C2=O (stereo not drawn) | 19.9%
CCN(CC)C1COc2c(cc(Br)c(C)c2C)C1=O (stereo not drawn) | -6.45%
COc1ccc(N(c2ccc(OC)cc2)c2ccc(C(=O)O)s2)cc1 | -3.85%
COc1ccc(-c2nonc2N)cc1 | -0.886%
O=C1NC(=O)c2c3c(nc(O)c21)CCCC3 | 0.775%
CCn1nccc1C(=O)NC(Cn1cccn1)C(C)(C)C (stereo not drawn) | 2.9%
O=C1CCC(=O)N1c1nn(Cc2ccc(F)cc2)cc1Cl | 18.7%
CNCc1cc(F)ccc1Oc1ccc(F)cc1F | -0.802%
CCn1cc(-c2cc(C(F)F)n3nc(CC(=O)O)nc3n2)cn1 | 0.375%
NC(=O)CSc1nccc(-c2ccc3c(c2)OCO3)n1 | -2.27%
NC1C=C(C(F)(F)F)NC=C1c1ccc(Cl)cc1 (stereo not drawn) | 3.46%
Cn1cc(-c2cc(C(F)F)n3nc(CCC(=O)O)nc3n2)cn1 | -4.35%
Cc1cn(Cc2ccccc2)nc1N | 2.81%
Cc1cccc(Cn2cc(C)c(N)n2)c1 | -1.64%
CS(=O)(=O)N1CCCC(C(=O)Nc2cnn(Cc3ccc(F)cc3)c2)C1 (stereo not drawn) | 0.36%
CS(=O)(=O)N1CCCC(C(=O)Nc2cnn(COCC(F)(F)F)c2)C1 (stereo not drawn) | 3.12%
O=C1CCC(=O)N1c1nn(Cc2ccccc2)cc1Cl | 20.6%
O=C1CCC(=O)N1c1nn(Cc2ccccc2Cl)cc1Cl | -0.484%
CCc1nc(C)cn1C(=O)Nc1ccc(C)cc1 | -1.55%

Structure (SMILES) | cytotoxicity at 70.5 h
O=C(O)c1cc(-c2cccs2)nc2c(Br)cnn12 | 3.58%
Cn1c(=O)c2cc(C(=O)NCc3ccncc3)ccc2n(C)c1=O | 2.17%
CCn1cc(-c2cc(C(F)(F)F)n(CCCN)n2)cn1 | 1.14%
COC(=O)c1ccc(CNCc2cn(C)nc2C)cc1 | 1.28%
Cc1nn(C)cc1CNCc1ccc(N(C)C)cc1 | 1.1%
CCOCCCNC(=O)Cc1cccs1 | -1.71%
Cc1cc(-n2cnnn2)n2ncnc2n1 | 3.71%
N#Cc1cc2c(nc1SCc1cc(O)nc(O)n1)CCCCC2 | -1.03%
Cc1nn(C)cc1-c1cc(C(F)(F)F)c2c(C)nn(CC(=O)O)c2n1 | 32%
COCc1c(C(=O)NC2CCCC2)nnn1-c1ccc(C)cc1 | 22.4%
Cc1ccc(NC(=O)C2=CN=S=N2)cc1 | 18.8%
CCCn1ncc2c(C(=O)Nc3cnn(CC)c3C)cc(C3CC3)nc21 | 5.37%
CCn1ncc(NC(=O)c2cc(C3CC3)nc3c2c(C)nn3C)c1C | 35.5%
CNC(=O)c1cccc(C2CNCCN2C(C)=O)c1 (stereo not drawn) | 14.8%
COc1ccc(-c2nccnc2C2CCN(C(C)=O)CC2)cc1 | 19.6%
CNC(=O)[C@@H](c1ccccc1F)N1CCC[C@H]1C(=O)NC1CCOCC1 | -12.5%
CCNC(=O)[C@@H]1CCCN1C1(C(=O)NC)CCC1 | -5.11%
CNC(=O)[C@@H](C1CC1)N1CCC[C@H]1C(=O)NCC(C)C | -7.95%
CNC(=O)[C@@H](c1ccccc1OC)N1CCC[C@H]1C(=O)N1CCC1 | -5.76%
CNC(=O)C(C)(C)N1CCC[C@H]1C(=O)NCCN1CCCC1 | 5.17%
